Columns and labels:
human CPT1A = molecular target: T1, human CPT1A (Homo sapiens, UniProt P50416); test: Human CPT1A LC/MS assay; type: biochemical; conditions: human CPT1A LC/MS assay, dose response format
T1 construct: made in house; host or cells: Saccharomyces cerevisiae (pESC-trp) or cultured mammalian cells (pCDNA3.1); mitochondrial extract
T1 sequence (P50416 1-773): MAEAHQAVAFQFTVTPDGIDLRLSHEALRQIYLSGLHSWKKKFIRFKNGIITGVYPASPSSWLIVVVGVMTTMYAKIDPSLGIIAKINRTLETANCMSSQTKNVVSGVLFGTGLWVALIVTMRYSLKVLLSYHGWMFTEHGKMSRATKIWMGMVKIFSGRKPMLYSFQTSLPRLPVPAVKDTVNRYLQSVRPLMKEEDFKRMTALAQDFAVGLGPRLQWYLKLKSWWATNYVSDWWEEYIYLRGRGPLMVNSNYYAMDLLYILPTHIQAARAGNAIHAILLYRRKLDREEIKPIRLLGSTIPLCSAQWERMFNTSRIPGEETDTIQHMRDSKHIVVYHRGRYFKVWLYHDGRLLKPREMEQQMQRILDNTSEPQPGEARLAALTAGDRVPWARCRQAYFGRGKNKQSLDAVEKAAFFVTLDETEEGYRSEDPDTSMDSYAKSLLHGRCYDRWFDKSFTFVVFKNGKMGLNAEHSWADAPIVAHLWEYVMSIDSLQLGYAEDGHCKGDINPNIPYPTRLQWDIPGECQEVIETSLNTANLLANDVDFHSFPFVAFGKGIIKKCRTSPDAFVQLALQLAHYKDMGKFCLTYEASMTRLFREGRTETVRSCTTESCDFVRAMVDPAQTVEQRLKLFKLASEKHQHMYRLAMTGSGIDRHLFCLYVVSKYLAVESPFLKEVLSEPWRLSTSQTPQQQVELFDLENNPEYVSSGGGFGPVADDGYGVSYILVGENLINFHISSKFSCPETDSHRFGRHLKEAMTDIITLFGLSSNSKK
Description: Nucleotide sequences encoding human CPT1 enzymes were individually cloned into the yeast expression vector pESC-trp at the Cla1 (5′ terminus) and Pac1 (3′ terminus) restriction sites by PCR amplification of the open reading frame using oligonucleotide primers designed to encode the wild-type CPT1 protein sequence. Standard molecular biology techniques were used to transform and express the CPT1 proteins in the yeast Saccharomyces cerevisiae. The yeast cells were lysed by enzymatic degradation of the cell wall by Zymolase, and the mitochondria were isolated by standard biochemical techniques. The integrity of the isolated mitochondria was monitored by determining the activity of succinate dehydrogenase in the mitochondrial preparations. The mitochondrial extracts were stored at −80° C. in buffer containing 10 mM HEPES pH 7.4 and 250 mM sucrose.
Human CPT1 (A, B, C) genes were additionally cloned into the pCDNA3.1 vector individually for expression in cultured mammalian cells. Cells expressing the exogenous CPT1A were identified and grown under standard conditions. Mammalian cells were harvested, and mitochondrial extracts prepared using standard biochemical methods. The mitochondrial extracts were stored at −80° C. in buffer containing 10 mM HEPES pH 7.4 and 250 mM sucrose.
Assays were performed in 96-well plate format. Each 100 μL reaction contained 40 mM KCl, 50 mM TrisHCl pH 7.5, and 250 mM mannitol (Assay Buffer), and 1.6 μg protein of an extract, 20 μM palmitoyl-CoA, 50 μM L-carnitine, and 10 ug/mL BSA. Reactions were incubated at room temperature and stopped after 10 minutes by extraction with 200 μL of water saturated n-butanol containing myristoyl carnitine (500 nM) as an internal standard. The samples were thoroughly mixed, and the phases separated by centrifugation. Samples were prepared for analysis with a 10 fold dilution of the n-butanol phase containing the reaction product palmitoyl carnitine into a 50:50 (acetonitrile:water) solvent for analysis. 5 μL of prepared sample was separated on a Phenomenex Jupiter 5μ C4 reverse-phase column using an Agilent 1100 HPLC with a gradient from 50% acetonitrile (0.5% acetic acid) to 100% acetonitrile and quantified by detection with a Bruker Esquire 3000plus mass spectrometer. The abundance of the palmitoyl carnitine product was determined relative to the internal standard and the actual quantity of palmitoyl carnitine can be determined from a standard curve prepared using the n-butanol solution containing the internal standard.
Compounds were evaluated in two formats, a screening format, and a dose response format. The screening format was performed by adding 25 μL compound in 20% DMSO and Assay Buffer to 25 μL of extract containing […] and Assay Buffer, followed by a 10 minute incubation at room temperature. 50 μL of 40 μM palmitoyl-CoA in Assay Buffer was added to the reaction mixture, mixed and incubated for 10 minutes at room temperature. A negative control for activity was also performed where the carnitine was omitted from the reaction. A positive control for activity was also performed by omitting compound from the solution containing 20% DMSO and Assay Buffer. The reaction mixture was extracted and analyzed as described above. The inhibition by compound was determined by comparing the control relative activity to the relative activity observed in wells containing the compound. Relative activity was determined by subtracting the relative intensity (area palmitoyl carnitine/area myristoyl carnitine) observed in the negative control from the relative intensity observed in the experimental well, and dividing by the relative activity observed in the positive control.
[formula] Compound characterization by dose response format was performed using the above described assay conditions and a 16 point compound titration in 2 fold compound dilution steps. The DMSO concentration was kept constant at 20% (v/v) for all compound concentrations.

[1] = system: cancer cell lines from breast, lung, colon, brain, prostate and ovarian cancer; test: Cancer cell growth inhibition, SRB assay, cell line panel; type: cell-based, human; conditions: cell lines of Tables 2 and 3; for S11: at 10 μM, all lines other than MDA-231, A549, H460, HCT-8
Method: Human cancer cells (MCF-7, H358, H460, HCT116 p53^+/+, HCT116 p53^−/−, A172, PC-3, DU-145 and SW626) were maintained in DMEM medium containing 10% Fetal Bovine Serum (FBS) (Invitrogen, Burlington, ON, Canada) and normal cells HMEC, 184A1, NHBE and PrEC were cultured in MEGM, MEGM plus transferring and cholera toxin, BEGM and PrEGM supplemented with various growth factors (Cambrex, Charles city, Iowa, USA), respectively.
Compounds of Examples S1 to S30, and 4-(carboxymethyl)-4-(6-(3-hexyloxy)phenoxy)hexanoamido)-1,1-dimethylpiperidinium 2,2,2-trifluoroactate (“Compound A”) were tested in this example. Each of the tested compounds was dissolved in DMSO and further diluted in cell culture medium for the experiments performed. […] Cell viability was assessed by Sulforhodamine B (SRB) assay at Day 6.
Sulforhodamine B (SRB) (Sigma, Oakville, ON, Canada) is a water-soluble dye that binds to the basic amino acids of the cellular proteins. […] Absorbance was read at 570 nm on a spectrophotometer. […] Growth inhibition (%) was determined as percentage of cells remaining compared to the DMSO-treated cells as control.
All of the compounds shown in Tables 2 and 3 had activity against at least one cell line (“NT” means not tested; and “NE” means no activity at 10 micromolar—activity at higher concentrations was not measured).

CCCCCc1ccc(S(=O)(=O)NC2(CC(=O)O)CCCN(C)C2)cc1 (centres unmarked) [Example S11, 3-(carboxymethyl)-1-methyl-3-(4-pentylphenylsulfonamido)piperidinium 2,2,2-trifluoroacetate]
IC50 (human CPT1A): 1 to 10 µM
activity against cancer cell lines [1]: did not exihibit activity at 10 μM

— patent US8680282B2, “Cyclic inhibitors of carnitine palmitoyltransferase and treating cancer” (University Health Network, priority 2007, dated 2014)
